≈ marks a conversion by molar mass, not a printed value.
settings: buffer; pH 7.4; 200.0 µM

Row | SMILES | solubility kinetic
1 | S=C(Nc1ccccc1Cl)N1CCC(c2ccccc2)C1 (stereo not given) | 17.9 µg/mL (≈ 56.5 µM)
2 | Fc1ccccc1-c1csc(-c2cccnc2)n1 | 0.4 µg/mL (≈ 1.56 µM)
3 | Cc1nc(N)c(C#N)c(-c2ccc3c(c2)OCO3)c1C | 0.5 µg/mL (≈ 1.87 µM)
4 | COc1ccc2c(c1)[C@@]13CCC=C[C@H]1[C@@H](C2)NCC3.Cl | > 43.8 µg/mL
5 | Cc1cc(OCc2cccc(Cl)c2)c(C)cc1CN1CCOCC1 | 1 µg/mL (≈ 2.89 µM)
6 | CCn1ccnc1CN(C)Cc1nc(CCC(C)C)no1 | 38.4 µg/mL (≈ 132 µM)
7 | O=C(NC1CCSc2ccccc21)c1ccc(F)cc1 (stereo not given) | 4.9 µg/mL (≈ 17.1 µM)
8 | CCSc1nnc(NC(=O)CN2C(=O)NC3(CCCC3)C2=O)s1 | > 53.3 µg/mL
9 | O=c1cc(NC2CCCCC2)[nH]c(=O)[nH]1 | 13.1 µg/mL (≈ 62.6 µM)
10 | Cc1ccc2nc(-c3ccccc3)c(CN3CCOCC3)n2c1 | > 46.1 µg/mL
11 | NC(=O)c1cc(NC(=O)COC(=O)CCCN2C(=O)c3cccc4cccc(c34)C2=O)cc(C(N)=O)c1 | 4.9 µg/mL (≈ 9.75 µM)
12 | CCOC(=O)c1sc(-c2ccc(Cl)cc2)nc1O | 40.8 µg/mL (≈ 144 µM)
13 | Br.N=C(N)SCCc1cccc(CCSC(=N)N)c1 | > 66.6 µg/mL
14 | CN(CC(=O)Nc1cccc(F)c1)C(=O)c1ccncc1 | > 43.1 µg/mL
15 | Cc1nn(CC(=O)Nc2ccc(N3CCOCC3)cc2)c(C)c1[N+](=O)[O-] | > 53.9 µg/mL
16 | O=C(NCc1ccccc1Cl)c1ccc[nH]1 | 31.5 µg/mL (≈ 134 µM)
17 | CCN(CC)C(=O)Cn1c(=O)oc2ccccc21 | > 37.2 µg/mL
18 | O=C1COc2ccc(NC(=O)c3ccccc3C(=O)O)cc2N1 | 40.5 µg/mL (≈ 130 µM)
19 | Cc1ccc(CSCC(=O)NCCc2ccccc2)cc1 | 40.9 µg/mL (≈ 137 µM)
20 | C/C(Cc1ccccc1)=N\NC(=O)CNC(=O)c1ccccc1O | > 48.8 µg/mL

Row | SMILES | solubility kinetic
21 | C/C(=C/c1ccccc1)C(=O)N1CCN(c2ccccc2F)CC1 | 35.6 µg/mL (≈ 110 µM)
22 | COC(=O)c1sc(SC)nc1N | 30.4 µg/mL (≈ 149 µM)
23 | Cn1c(=S)[nH]c2scc(-c3cccs3)c2c1=O | > 42.1 µg/mL
24 | Cc1ccc(OCC(=O)NCCNC(=O)c2ccco2)cc1C | > 47.5 µg/mL
25 | CCOC(=O)c1cc(Sc2ccccc2N)cc(C(=O)OCC)n1 | < 0.4 µg/mL
26 | O=C(O)c1c(NC(=O)N2CCOCC2)sc2c1CCCC2 | > 46.6 µg/mL
27 | COc1cc(S(=O)(=O)NCCCn2ccnc2)ccc1Cl | > 49.5 µg/mL
28 | Cc1ccc(NC(=O)COc2ccc3c(c2)OCO3)c(C)c1 | 6.1 µg/mL (≈ 20.4 µM)
29 | COc1ccc(Cl)cc1N1C(=O)CC(N2CCN(S(=O)(=O)c3ccccc3F)CC2)C1=O (stereo not given) | 38.3 µg/mL (≈ 79.5 µM)
30 | COCC(=O)Nc1ccc(N2CCN(c3ccccc3)CC2)c(F)c1 | 2 µg/mL (≈ 5.82 µM)
31 | Clc1ccccc1N1CCN(Cc2ccco2)CC1 | 30.3 µg/mL (≈ 109 µM)
32 | O=C(CN1C(=O)CCC1=O)Nc1cccc2c1C(=O)NC2=O | > 45.2 µg/mL
33 | CCOc1ccc(Br)cc1S(=O)(=O)Nc1cccnc1 | 1.4 µg/mL (≈ 3.92 µM)
34 | O=C(NCc1cccnc1)C1CC(c2ccccc2Cl)=NO1 (stereo not given) | > 47.4 µg/mL
35 | N#Cc1cc2cc3c(cc2nc1SCC(=O)N1CCOCC1)OCO3 | 4.9 µg/mL (≈ 13.7 µM)
36 | Cc1nc(SCC(=O)NCCN2C(=O)CSC2=O)nc(C)c1C | > 53.2 µg/mL
37 | COc1ccc(S(=O)(=O)NCCCN2CCCC2=O)cc1OC | 47.4 µg/mL (≈ 138 µM)
38 | CCCC1(CCC)NC(=O)N(CC(=O)Nc2ccc3c(c2)OCCO3)C1=O | > 56.3 µg/mL
39 | CC(C)(C)c1ccc(C(=O)NC2CCN(Cc3ccccc3)CC2)cc1 | 36.5 µg/mL (≈ 104 µM)
40 | O=C(Cc1ccc(Cl)c(Cl)c1)N1CCOCC1 | > 41.1 µg/mL

Row | SMILES | solubility kinetic
41 | Cc1ccc(C#N)c(SCc2ccccc2F)n1 | < 0.3 µg/mL
42 | COc1ccccc1N=C1SCC(=O)N1Cc1ccco1 | 35.8 µg/mL (≈ 118 µM)
43 | COCCCN=CC1=C(O)CC(c2ccccc2)CC1=O (stereo not given) | > 43.1 µg/mL
44 | CCCCCCC(=O)N(O)C1CC(=O)N(c2ccc(Cl)cc2)C1=O (stereo not given) | 43.9 µg/mL (≈ 124 µM)
45 | O=C1C(C=Nc2ccc(F)cc2)=C(O)c2ccccc21 | < 0.6 µg/mL
46 | CC(C)=CCN1CCN(Cc2c[nH]c3ccccc23)CC1CCO (stereo not given) | > 49.1 µg/mL
47 | Cc1ccc(-c2c[nH]c(=S)n2-c2ccccc2F)cc1 | 11.2 µg/mL (≈ 39.4 µM)
48 | O=C(O)C1CCN(C(=O)CSc2nnc(-c3ccccc3)o2)CC1 | > 52.1 µg/mL
49 | C=CCNc1nc(-c2c(C)nc3ncccn23)cs1 | > 40.7 µg/mL
50 | O=C(NC1CCCCC1)c1cc(-c2ccc(Cl)cc2)on1 | 0.5 µg/mL (≈ 1.64 µM)
51 | CCc1noc(C)c1C(=O)OCC(=O)NC(C)c1ccccc1 (stereo not given) | > 47.5 µg/mL
52 | COC(=O)C1CCN(C(=O)/C(C)=C\c2ccccc2)CC1 | 41 µg/mL (≈ 143 µM)
53 | COc1ccc(NC(=O)C2CC(c3ccc(Cl)cc3)=NO2)cc1 (stereo not given) | < 0.4 µg/mL
54 | c1ccc(OCCCCN2CCCCC2)cc1 | 29.6 µg/mL (≈ 127 µM)
55 | O=C(Cc1ccc([N+](=O)[O-])cc1)c1c(O)cc(O)cc1O | > 43.4 µg/mL
56 | Cc1ccc(/C(=N/Nc2ncnc3ccccc23)C(=O)O)cc1 | > 45.9 µg/mL
57 | O=C(O)c1cc(O)ccc1NC(=O)c1cccc2ccccc12 | > 46.1 µg/mL
58 | Cc1noc(C)c1COC(=O)/C=C/c1ccc(Cl)cc1 | 6.4 µg/mL (≈ 21.9 µM)
59 | O=C(Nc1ccc2c(c1)OCO2)C1CC(=O)N(c2cccc(Cl)c2)C1 (stereo not given) | 0.9 µg/mL (≈ 2.51 µM)
60 | CCCOc1ccc(/C=C/C(=O)NC2CCCCC2)cc1 | < 0.6 µg/mL

Reference: PubChem BioAssay AID1996
